In patent US11549115B2, “Compositions and methods for regulated gene expression” (YALE UNIVERSITY, priority 2017, dated 2023):

Assays:
[1] = test system: Bt::tetR P1TDP^GH023-NanoLuc; test: Fecal luminescence in monocolonized gnotobiotic mice; type: in vivo
Protocol: Germ-free Swiss Webster mice were orally gavaged with 1×10^9 CFU of Bt::tetR P1TDP^GH023-NanoLuc and colonization was allowed to stabilize for at least 7 days prior to the start of the experiment. Fecal pellets were collected every day, and groups of mice were given aTC in the drinking water at various concentrations for 48 hours after stool collection on Day 3 and Day 17. Mice belonging to the same treatment group were co-housed for the duration of the experiment. To obtain samples for luminescence production, fecal pellets and intestinal lumen (˜100-200 mg) were homogenized in 1 mL of 1×PBS with a single 5 mm stainless steel bead using a bead beater (BioSpec Products) at 26° C. for 1 minute on the high setting, followed by vortexing at top speed for 8 minutes. Samples were centrifuged at 500×g for 1 minute to pellet fibrous and insoluble matter. The supernatant was used for CFU determination by plating dilutions on BHI-blood agar plates containing gentamicin and erythromycin, and 500 μL was used for luminescence measurements (described below).
The 500 μL collected from the resuspended fecal supernatant was centrifuged at 21,130×g for 3 minutes to pellet bacterial cells, which were then resuspended in 50 μL 1× BugBuster (Novagen) in 1×PBS and lysed by one round of freeze-thaw and 10 minutes of nutation at 26° C. Samples were centrifuged at 21,130×g for 10 minutes at 4° C., and 10 μL of the supernatant was mixed with an equal volume of NanoLuc Reaction Buffer to induce luminescence production. Luminescence was measured after a 5 minute incubation at 26° C. on a plate reader (BioTek Synergy H1) with an integration time of 1 second at a gain setting of 100. Luminescence values were normalized to colony forming units (CFUs) determined by dilution plating of the resuspended fecal supernatant on BHI-blood agar plates containing gentamicin and erythromycin.

[2] = LC-MS quantification of aTC in fecal pellets; type: in vivo, mice
Protocol: Germ-free Swiss Webster mice were maintained in flexible plastic gnotobiotic isolators with a 12-hour light/dark cycle and provided a standard, autoclaved mouse chow (5K67 LabDiet, Purina) ad libitum and autoclaved water for the duration of the experiment. Filter-sterilized aTC was added to drinking water stored in red-tinted bottles (Ancare, #PC9RH8.5RD) to inhibit degradation by light. Mice were co-housed for the duration of the experiments. Cage changes were always carried out when aTC was withdrawn from drinking water. Fecal and luminal samples were collected and processed in 2.0 mL screw cap tubes (Axygen Scientific; #SCT-200-C). Germ free status was monitored by 16S rDNA-targeted PCR of fecal DNA and anaerobic and aerobic culture of fecal samples.
Groups of 6 germ-free Swiss Webster mice were orally gavaged with 1×10^9 CFU of the desired B. thetaiotaomicron strain. Fecal samples (˜100-200 mg) were collected daily for 12 days. aTC (100 μg/mL) was administered in drinking water for 12 hours after fecal collection on day 1. Fecal samples were homogenized in 1 mL of 1× tris-buffered saline (TBS) with a single 5 mm stainless steel bead using a bead beater (BioSpec Products) at 26° C. for 1 minute on the high setting, followed by vortexing at top speed for 8 minutes. Samples were then centrifuged at 500×g for 1 minute to pellet fibrous and insoluble matter. Bacterial cells from 600 μL of the supernatant was isolated through centrifugation at 21,130×g for 3 minutes, resuspended in 50 μL of Sialidase Reaction buffer (50 mM Tris-HCl pH 7.0, 5 mM EDTA) containing 1× BugBuster, and stored at −80° C. for ex vivo sialidase measurements (described below).
To the remaining material, 400 mg of 0.1 mm glass beads was added and further homogenized by bead beating for 2 minutes. Insoluble material was pelleted by centrifuging the sample for 3 minutes at 21,130×g, and 20 μL of the supernatant was used for mass spectrometry measurements of sialic acid and aTC by liquid chromatography coupled tandem mass spectrometry (QqQ) and mass spectrometry (qTOF), respectively.
For aTC measurements, 5 μL of internal standard solution (0.25 μM sulfamethoxazole and caffeine in H2O) were added to each sample (20 μL) and further processed as described above. Dried samples were re-suspended in 4 μL methanol and diluted in 12 μL H2O. Chromatographic separation was performed on a C18 Kinetex Evo column (Phenomenex, 100 mm×2.1 mm, 1.7 μm particle size) using mobile phase A: H2O, 0.1% formic acid and B: methanol, 0.1% formic acid at 45° C. 10 μL of sample were injected at 100% A and 0.4 mL/min flow followed by a linear gradient to 95% B over 5.5 min and 0.4 mL/min flow leading to aTC, caffeine and sulfamethoxazole elution at 3.0, 1.9, 2.1 min, respectively. The qTOF was operated in positive scanning mode (50-1000 m/z) and the following source parameters: VCap: 3500 V, nozzle voltage: 2000 V, gas temp: 225° C.; drying gas 13 L/min; nebulizer: 20 psig; sheath gas temp 225° C.; sheath gas flow 12 L/min. Online mass calibration was performed using a second ionization source and a constant flow (5 μL/min) of reference solution (121.0509 and 922.0098 m/z). Compounds were identified based on the retention time of chemical standards and their accurate mass (tolerance 20 ppm). The MassHunter Quantitative Analysis Software (Agilent, version 7.0) was used for peak integration and quantification was based on calibration curves using chemical standards and the signal intensity of the internal standard spiked into each sample.

[3] = 12 hours of aTC (100 μg/mL) via drinking water

Cc1c2c(c(O)c3c(O)cccc13)C(=O)[C@]1(O)C(=O)C(C(N)=O)=C(O)[C@@H](N(C)C)[C@@H]1C2 [aTC, Anhydrotetracycline]
impact on B. thetaiotaomicron stability in the gut ([1]; CFU): do not impact B. thetaiotaomicron stability in the gut
aTC concentration at which detectable responses start ([1]; drinking water, within 24 hours): 0.2 to 0.5 µg/mL
complete repression after aTC removal ([1]; monocolonized mice): 9 days
increase of luminescence in fecal pellets ([1]; monocolonized mice, within 24 hours of aTC addition): ~1,000 fold
range of commensal gene expression modulated inside the gut by varying aTC concentrations ([1]; mouse, in vivo): 3 orders of magnitude
aTC concentration providing maximal gene induction in vivo ([1]; sigmoidal fit): 100 µg/mL
time to spike of inducer levels in fecal pellets [2, 3]: ≤ 12 h
time to undetectable after the spike [2, 3]: 24 h
half-life ([2]; Swiss Webster, mouse, faeces, oral, fecal pellets, gnotobiotic mice with wildtype B. thetaiotaomicron, 100 μg/mL in drinking water for 4 days, read-out: half-life in vivo (converted)): 19 h
degradation by B. thetaiotaomicron in vivo ([2]; comparison with germfree mice): does not degrade aTC in vivo
time to detection after addition to drinking water ([2]; fecal pellets, 100 μg/mL): ≤ 24 h
time to undetectable after removal from the water ([2]; fecal pellets, 100 μg/mL for 4 days): 6 days
